From ChEMBL document CHEMBL1201862, “PubChem BioAssay data set” (2004)
The source made the active and inactive calls.

Legend:
[1] = target: T1, Protein RecA (Mycobacterium tuberculosis, UniProt P9WHJ3); experiment: Fluorescence Cell-Free Homogeneous Dose Retest to Identify Inhibitors of RecA-Intein Splicing Activity. [Related pubchem assays (depositor defined):AID2097, AID2223, AID489010, AID492950]; format: functional
T1 sequence (P9WHJ3 whole entry): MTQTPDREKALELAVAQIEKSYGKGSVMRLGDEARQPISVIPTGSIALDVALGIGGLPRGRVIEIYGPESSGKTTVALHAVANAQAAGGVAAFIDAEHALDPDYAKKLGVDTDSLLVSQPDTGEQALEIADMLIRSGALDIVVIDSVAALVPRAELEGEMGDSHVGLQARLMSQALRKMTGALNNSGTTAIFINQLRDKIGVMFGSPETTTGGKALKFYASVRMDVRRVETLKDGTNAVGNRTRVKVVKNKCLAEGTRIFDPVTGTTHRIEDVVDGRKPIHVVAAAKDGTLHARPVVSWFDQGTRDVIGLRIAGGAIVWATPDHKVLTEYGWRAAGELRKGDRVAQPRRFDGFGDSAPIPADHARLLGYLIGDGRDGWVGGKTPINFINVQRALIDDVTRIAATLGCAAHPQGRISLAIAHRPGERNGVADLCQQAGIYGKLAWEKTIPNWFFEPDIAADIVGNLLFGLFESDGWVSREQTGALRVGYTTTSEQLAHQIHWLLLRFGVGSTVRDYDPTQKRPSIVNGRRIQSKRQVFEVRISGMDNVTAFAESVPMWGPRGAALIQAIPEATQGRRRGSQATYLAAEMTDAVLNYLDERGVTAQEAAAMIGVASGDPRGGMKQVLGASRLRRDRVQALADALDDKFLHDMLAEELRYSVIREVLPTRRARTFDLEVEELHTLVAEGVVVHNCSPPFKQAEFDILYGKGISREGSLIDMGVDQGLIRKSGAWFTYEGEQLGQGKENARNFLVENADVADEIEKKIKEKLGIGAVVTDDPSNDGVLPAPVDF

[2] = target: T2, Caspase-3 (Homo sapiens, UniProt P42574); format: functional;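 note: Dose-response selectivity test against caspase-3 for candidate inhibitors of sentrin-specific proteases (SENPs)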
T2 sequence (P42574 whole entry): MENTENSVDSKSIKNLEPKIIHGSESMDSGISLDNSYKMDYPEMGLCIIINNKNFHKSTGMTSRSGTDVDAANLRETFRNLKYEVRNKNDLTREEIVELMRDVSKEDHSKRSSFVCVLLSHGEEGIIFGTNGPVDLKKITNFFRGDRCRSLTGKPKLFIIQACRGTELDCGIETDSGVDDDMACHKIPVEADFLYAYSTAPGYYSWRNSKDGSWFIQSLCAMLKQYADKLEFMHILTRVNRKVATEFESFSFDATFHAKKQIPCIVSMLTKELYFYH

[3] = target: T3, Histone-lysine N-methyltransferase NSD2 (Homo sapiens, UniProt O96028); format: biochemical
T3 sequence (O96028 whole entry): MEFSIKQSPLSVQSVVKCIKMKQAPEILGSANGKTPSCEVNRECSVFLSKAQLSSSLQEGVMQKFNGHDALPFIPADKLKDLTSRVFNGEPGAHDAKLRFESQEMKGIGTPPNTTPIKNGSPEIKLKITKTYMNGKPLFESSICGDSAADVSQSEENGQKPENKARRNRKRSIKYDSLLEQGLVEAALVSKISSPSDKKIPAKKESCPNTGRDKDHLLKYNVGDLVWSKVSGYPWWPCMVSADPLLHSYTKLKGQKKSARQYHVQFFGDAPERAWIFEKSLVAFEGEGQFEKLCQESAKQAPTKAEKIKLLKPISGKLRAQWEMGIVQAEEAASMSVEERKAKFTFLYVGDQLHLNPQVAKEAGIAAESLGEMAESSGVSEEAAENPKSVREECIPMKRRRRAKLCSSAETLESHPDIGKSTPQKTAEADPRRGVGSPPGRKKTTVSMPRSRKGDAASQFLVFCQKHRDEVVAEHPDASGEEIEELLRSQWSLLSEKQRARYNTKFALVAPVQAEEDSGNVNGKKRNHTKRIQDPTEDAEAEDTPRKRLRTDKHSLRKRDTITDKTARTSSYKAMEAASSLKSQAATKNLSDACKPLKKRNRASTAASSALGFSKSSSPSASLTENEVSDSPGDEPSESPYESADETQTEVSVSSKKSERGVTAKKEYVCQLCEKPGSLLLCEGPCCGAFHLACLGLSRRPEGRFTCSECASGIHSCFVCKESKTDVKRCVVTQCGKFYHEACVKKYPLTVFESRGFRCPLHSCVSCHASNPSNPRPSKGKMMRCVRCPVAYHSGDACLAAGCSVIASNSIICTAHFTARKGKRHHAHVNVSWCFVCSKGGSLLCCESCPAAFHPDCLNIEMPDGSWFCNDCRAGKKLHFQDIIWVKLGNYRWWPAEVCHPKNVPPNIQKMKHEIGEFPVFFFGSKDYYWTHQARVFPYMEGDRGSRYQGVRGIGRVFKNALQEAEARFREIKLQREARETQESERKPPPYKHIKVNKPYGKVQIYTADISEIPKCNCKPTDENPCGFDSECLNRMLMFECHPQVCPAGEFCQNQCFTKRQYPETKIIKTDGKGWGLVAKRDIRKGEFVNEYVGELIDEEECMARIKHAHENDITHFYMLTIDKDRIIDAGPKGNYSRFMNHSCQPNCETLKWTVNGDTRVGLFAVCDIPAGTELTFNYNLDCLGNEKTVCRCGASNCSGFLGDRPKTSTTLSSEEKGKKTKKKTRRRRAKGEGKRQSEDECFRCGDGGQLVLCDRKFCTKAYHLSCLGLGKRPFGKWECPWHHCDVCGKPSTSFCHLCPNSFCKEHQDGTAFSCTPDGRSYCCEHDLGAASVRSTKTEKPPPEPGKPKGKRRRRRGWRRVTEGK

| SMILES | EC50 [1] | IC50 [2] | AC50 [3] |
| --- | --- | --- | --- |
| C=CCNC1=C(Cl)C(=O)c2ccccc2C1=O | 10.4 µM (active) | 3.62 µM (active) | 19.4 µM (active) |
| CS(=O)(=O)c1ccc2c(c1)SC1=NC(=O)/C(=C/c3ccc(O)c(O)c3)C(=N)N12 | – | – | 1.9 µM (active) |
| CCOC(=O)C(C(=O)OCC)c1cc(Br)c2noc3c2c1C(=O)c1ccccc1-3 | 0.393 µM (active) | – | > 20 µM (inactive) |
| CN(C)c1ccc(-c2nnc(-c3cccs3)o2)cc1 | – | 22.3 µM (active) | – |
